From patent US20230158098A1, “COMPOSITION FOR PROMOTING ENERGY EXPENDITURE” (MORINAGA MILK INDUSTRY CO., LTD., priority 2017, published 2023)

Tested on: Male C57BL/6J mice
Assay: Energy expenditure by indirect calorimetry, administration at rest 2
Assay type: in vivo
Details: mice fasted 1 hour, oral, hydrolysates 1.0 mg/g body weight, MKP peptide 0.4 μg/g body weight, randomized crossover, FIG. 3
Method: Male C57BL/6J mice as laboratory animals were divided into the following four groups: rest group, casein hydrolysate administration group, MKP peptide administration group, and whey protein hydrolysate administration group. The mice were fasted for 1 hour. Subsequently, a casein hydrolysate and a whey protein hydrolysate each in an amount of 1.0 mg/g body weight and a MKP peptide in an amount of 0.4 μg/g body weight were orally administered, and energy expenditure was measured. The number of mice used in the experiment was n=12 in each group, and a randomized crossover test was employed.
Incidentally, as the casein hydrolysate and the whey protein hydrolysate, those prepared in <1>, (1) to (2), above were used, and, as the MKP peptide, a synthetic peptide was purchased from Peptide Institute and used. Energy expenditure for 60 minutes after administration was determined.
As compared with the rest group, in all the casein hydrolysate administration group, MKP peptide administration group, and whey protein hydrolysate administration group, the level of energy expenditure was higher.

Substance: H-Met-Lys-Pro-OH [MKP peptide]
- average energy expenditure for 60 minutes after administration compared with the rest group: higher
